Columns and labels:
[1] = parameters: method as in earlier work; settings: rodents; tissue-to-plasma distribution ratios (Kp) indicating substantial binding to tissue components; ref 16 (ARV-110), ref 17 (A947); cited from earlier work
[2] = Equilibrium dialysis binding to HEK293 cell homogenate (fraction unbound); type: in vitro ADME; settings: human, pH 7.4; fraction unbound in HEK293 cell homogenate, 10 × 10^6 cells/mL, 0.1 μM, 4 h, 37 °C; read-out: fu,hom
Method: (§1) The unbound fraction of a selected series of PROTACs was determined through equilibrium dialysis against the cell homogenate. HEK293 cells (ATCC, Manassas, VA) were grown in Dulbecco’s modified Eagle’s medium (DMEM) supplemented with 10% fetal bovine serum (FBS) at 37 °C, 95% relative humidity, and 5% CO2. Cell pellets were harvested using 0.05% trypsin and centrifuged at 260g for 5 min. The cells were resuspended in Dulbecco’s phosphate buffer (DPBS), counted using a Luna II cell counter (Logos Biosystems, Anyang, South Korea) and centrifuged at 260g. The supernatant was discarded, and cell pellets were stored at −80 °C prior to cell homogenate preparation. On the day of the experiment, cell pellets were thawed and resuspended in Hank’s balanced salt solution (HBSS) buffered with 20 mM HEPES (pH 7.4) to a concentration of 10 × 10^6 cells/mL. The cell suspension was homogenized using ultrasonication for 10 s at 20% intensity while kept on ice.
(§2) Compound stability was assessed by adding the compound-spiked cell homogenate to an empty well in the dialysis cassette. At the end of the experiment, these concentrations were compared to identical control samples stored at 4 °C. Mass balance was calculated at the end of each experiment. Further, in all wells, two control compounds (atorvastatin and lopinavir) were included to ensure that the assay plate was functional. All compounds were tested in triplicate in one experiment. Compound 2 was only detected on the cell homogenate side, and thus, the concentration on the buffer side was set to half of the lower limit of quantification to allow calculation of an approximate cell homogenate binding.
(§3) Final samples were matrix matched by taking 1 part sample and 1 part blank cell homogenate or buffer. Proteins were precipitated using 1 part matrix matched sample and 3 parts acetonitrile supplemented with 0.3% formic acid (FA) and 5 nM verapamil (internal standard), and this was diluted 1:1 with Milli-Q prior to centrifugation at 2500g for 20 min. Compound concentrations in the supernatant were quantified using a reversed phase system with a Waters Acquity UPLC HSS T3 column (50 × 2.1 mm, 1.8 μm) in an Aquity UPLC connected to a Xevo TQ-XS mass spectrometer (Waters Corp., Milford, MA). The chromatographic run was done using solvent A (0.1% FA in Milli-Q) and solvent B (0.1% FA in acetonitrile Optima LC/MS grade (Fisher Scientific)) with isocratic conditions between 0 and 0.3 min (99.8% solvent A and 0.2% solvent B), a linear gradient between 0.3 and 1.3 min (from 0.2% to 95% solvent B), isocratic conditions between 1.3 and 1.8 min (95% solvent B), and equilibration back to start conditions between 1.8 and 2.3 min. Mass transitions, cone voltages, and collision energies can be found in Table S4.

HEK293 cell homogenate = assay: as above; type: in vitro ADME; settings: equilibrium dialysis, HEK293 cell homogenate, 0.1 μM
Method: as §1, §2, §3

[3] = Caco-2 A-B passive permeability with preincubation, transporter-inhibited; type: in vitro ADME; settings: human, Caco-2, with 50 μM quinidine, 30 μM benzbromarone, 20 μM sulfasalazine; Figure 3A grouping; read-out: Passive Caco-2 cell permeability group (high, moderate or low)
Method: (§4) Transepithelial transport of the compounds through a Caco-2 monolayer (ATCC, HTB-37) was determined in 14–18 days old monolayers in Costar 24-well cell culture cluster plates (polycarbonate membrane, 0.4 μm pore size). Chamber volumes were 200 and 800 μL on the apical and basolateral sides of the cell monolayers, respectively, and all incubations were performed with prewarmed buffers in an orbital shaking incubator at 480 rpm and 37 °C. Prior to the assay, cells were washed with HBSS supplemented with 25 mM HEPES (HBSS-HEPES), pH 7.4, to remove the culture medium. After 15 min of equilibration, the transepithelial electrical resistance (TEER) was determined to assess acceptance of the cell plates into the assay. A second measurement and a lucifer yellow leakage determination was carried out after performing all the transport experiments to monitor integrity of the cell monolayers throughout the study.
(§5) Before the permeability study, to minimize nonspecific binding of PROTACs to the cells and plates, the cells were preincubated with 10 μM compound solution on the apical (donor) side for 1 h, analogous to Muschong et al. Then, cells were washed twice with HBSS-MES pH 6.5 containing 1% BSA. Then, permeability in the absorptive direction (A–B, apical-to-basolateral) was studied over 120 min at a 10 μM test compound concentration. The compound solutions were freshly prepared from DMSO stock solutions diluted into HBSS supplemented with 25 mM MES, pH 6.5, containing efflux inhibitors (50 μM quinidine, 30 μM benzbromarone, and 20 μM sulfasalazine); the final solvent concentration was always 0.5%.
(§6) Samples from the donor side (10 μL) were drawn immediately after the addition of the test compound and after 45 and 120 min. The donor samples were diluted 1:10 in HBSS. From the receiver compartment, an amount of 100 μL was withdrawn after 45 and 120 min and replaced with fresh HBSS-HEPES, pH 7.4.
(§7) Upon completion of the study, all samples were quenched with 300 μL of acetonitrile and analyzed subsequently using UPLC/MS/MS. The permeability was determined as the appearance rate of the compound on the receiver side, in relation to donor concentration, according to eq 4 Papp=dQ/[(dt)(T)]×A/D where dQ/[(dt)(T)] is the slope of the permeation profile across the Caco-2 cell monolayers, A is the surface area of the Transwell insert (0.33 cm^2), and D is the concentration on the donor side. Following the permeability experiments, recovery from the donor and receiver compartments was calculated using eq 5 recovery(%)(0−120min)=CR120×VR+CR45×0.1+CD45×0.01+CD120×VD/D0×VD×100

Caco-2 monolayer = assay: as above; type: in vitro ADME; settings: recovery from donor and receiver compartments, 0-120 min
Method: as §4, §5, §6, §7

Compound | tissue distribution [1] | fraction unbound at 4 h, 0.1 μM [2] | fu,hom mass balance (HEK293 cell homogenate) [%] | Papp A→B at 120 min, 10 μM [3] [×10⁻⁶ cm/s] | Papp Recovery (%) (0-120 min) (Caco-2 monolayer)
N#Cc1ccc(O[C@H]2CC[C@H](NC(=O)c3ccc(N4CCC(CN5CCN(c6cc7c(cc6F)C(=O)N(C6CCC(=O)NC6=O)C7=O)CC5)CC4)nn3)CC2)cc1Cl (stereo partly shown) [ARV-110] | widespread and extensive tissue distribution |  |  |  | 
Cc1ccc(C(=O)NCCCCc2cn(CCCC(=O)NCCCCNc3cccc4c3C(=O)N(C3CCC(=O)NC3=O)C4=O)nn2)cc1-n1c(C)cc(OCc2ccc(F)cc2F)c(Br)c1=O (stereo not shown) [Compound 3] |  | 0.24 | 111 | < 0.5 | 94
CCCOc1cccc(Oc2cc3c(cc2NS(=O)(=O)c2cccc(C(=O)NCCOCCOCCOCC(=O)N[C@@H](C(=O)N4C[C@@H](O)C[C@@H]4C(=O)NCc4ccc(-c5scnc5C)cc4)C(C)(C)C)c2)n(C)c(=O)n3C)c1 [Compound 4] |  | 0.2 | 66 | 0.5 to 10 | 78
CC(=O)c1c(C)c2cnc(Nc3ccc(N4CCN(CCOCCOCCOCCNC(=O)COc5cccc6c5C(=O)N([C@H]5CCC(=O)NC5=O)C6=O)CC4)cn3)nc2n(C2CCCC2)c1=O [Compound 5] |  | 0.396 | 76 | 0.5 to 10 | 84

— publication PMC12750995, “Conformational Dynamics in the Cell Membrane Interactions of Bispecific Targeted Degrader Therapeutics” (Journal of Medicinal Chemistry, 2025)
